Conditions: Liquid; for speed of sound: Single path-length method; for mass density: Vibrating tube method

CCCCCCCCCCCCCCCC [hexadecane]
Conditions	mass density [kg/m3]	speed of sound [m/s]
290.65 K, 83 kPa	775	1367.2
291.15 K, 83 kPa	774.7	1365.3
291.65 K, 83 kPa	774.4	1363.4
292.15 K, 83 kPa	774	1361.5
292.65 K, 83 kPa	773.6	1359.6
293.15 K, 83 kPa	773.3	1357.7
298.15 K, 83 kPa	769.8	1338.8
303.15 K, 83 kPa	766.4	1320.2
308.15 K, 83 kPa	762.9	1301.7
310 K, 1110 kPa	761.74	–
310 K, 2710 kPa	762.85	–
310 K, 5870 kPa	765.01	–
310 K, 10770 kPa	768.25	–
310 K, 15700 kPa	771.38	–
310 K, 20650 kPa	774.41	–
310 K, 25600 kPa	777.3	–
310 K, 34700 kPa	782.46	–
310 K, 36730 kPa	783.55	–
313.15 K, 83 kPa	759.4	1283.4
318.15 K, 83 kPa	756	1265.3
323.15 K, 83 kPa	752.5	1247.4
328.15 K, 83 kPa	749.1	1229.8
330 K, 1130 kPa	748.39	–
330 K, 2730 kPa	749.66	–
330 K, 5890 kPa	752.03	–
330 K, 10790 kPa	755.61	–
330 K, 15740 kPa	759.04	–
330 K, 20680 kPa	762.35	–
330 K, 25980 kPa	765.74	–
330 K, 36160 kPa	771.9	–
330 K, 38240 kPa	773.11	–
330 K, 45960 kPa	777.44	–
333.15 K, 83 kPa	745.6	1212.3
338.15 K, 83 kPa	742.2	1194.9
343.15 K, 83 kPa	738.7	1177.9
350 K, 1020 kPa	734.55	–
350 K, 2630 kPa	735.94	–
350 K, 5790 kPa	738.58	–
350 K, 10710 kPa	742.54	–
350 K, 15650 kPa	746.27	–
350 K, 20600 kPa	749.88	–
350 K, 25560 kPa	753.33	–
350 K, 36140 kPa	760.24	–
350 K, 40130 kPa	762.7	–
370 K, 1030 kPa	720.83	–
370 K, 2620 kPa	722.35	–
370 K, 5780 kPa	725.3	–
370 K, 10710 kPa	729.65	–
370 K, 15660 kPa	733.76	–
370 K, 20610 kPa	737.69	–
370 K, 25580 kPa	741.44	–
370 K, 34010 kPa	747.41	–
370 K, 41340 kPa	752.26	–
390 K, 1040 kPa	706.5	–
390 K, 2630 kPa	708.23	–
390 K, 5790 kPa	711.5	–
390 K, 10690 kPa	716.31	–
390 K, 15650 kPa	720.83	–
390 K, 20600 kPa	725.12	–
390 K, 25550 kPa	729.18	–
390 K, 35160 kPa	736.52	–
390 K, 39900 kPa	739.91	–
390 K, 44320 kPa	742.94	–
390 K, 46900 kPa	744.61	–
410 K, 1080 kPa	692.52	–
410 K, 2680 kPa	694.47	–
410 K, 5830 kPa	698.12	–
410 K, 10750 kPa	703.47	–
410 K, 15700 kPa	708.47	–
410 K, 20630 kPa	713.12	–
410 K, 25570 kPa	717.52	–
410 K, 30420 kPa	721.61	–
410 K, 37220 kPa	726.98	–
410 K, 44820 kPa	732.63	–
410 K, 50700 kPa	736.75	–
430 K, 970 kPa	677.73	–
430 K, 2590 kPa	679.9	–
430 K, 5770 kPa	684.04	–
430 K, 10650 kPa	689.93	–
430 K, 15590 kPa	695.44	–
430 K, 20560 kPa	700.57	–
430 K, 25530 kPa	705.37	–
430 K, 30420 kPa	709.84	–
430 K, 39590 kPa	717.56	–
430 K, 44320 kPa	721.28	–
430 K, 48490 kPa	724.39	–
450 K, 960 kPa	662.64	–
450 K, 2560 kPa	665.22	–
450 K, 5750 kPa	669.98	–
450 K, 10620 kPa	676.53	–
450 K, 15590 kPa	682.65	–
450 K, 20560 kPa	688.27	–
450 K, 25530 kPa	693.48	–
450 K, 30800 kPa	698.66	–
450 K, 39150 kPa	706.2	–
450 K, 43400 kPa	709.8	–
450 K, 45310 kPa	711.32	–
470 K, 1070 kPa	648.42	–
470 K, 2660 kPa	651.24	–
470 K, 5770 kPa	656.4	–
470 K, 10730 kPa	663.85	–
470 K, 15690 kPa	670.57	–
470 K, 20640 kPa	676.69	–
470 K, 25530 kPa	682.28	–
470 K, 30470 kPa	687.53	–
470 K, 38870 kPa	695.7	–
470 K, 42790 kPa	699.27	–
470 K, 47790 kPa	703.6	–
